Patent publication US11014934B2, “Antiseptic drug” (AO “TATKHIMFARMPREPARATY”, priority 2017, dated 2021)
Read-outs that look alike come from different tables or passages of the source.

Tests used:
Assay in all cases: MIC, serial dilutions in Müller-Hinton broth
Type in all cases: cell-based
A. baumannii 1425 PR = system: A. baumannii 1425 PR
In short: (§1)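 Broth microdilution in Müller-Hinton broth following MUK 4.2.1890-04, with two-fold compound dilutions at final 1-128 ug/ml. The inoculum was set to 0.5 McFarland and diluted to 10^7 CFU/ml before addition, then plates were incubated at 37° C. for 24 hours. MIC was the lowest concentration without visible growth, taking the highest of three independent runs.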

Acinetobacter spp. 1 = system: Acinetobacter spp. 1
In short: as §1

Acinetobacter spp. 3 = system: Acinetobacter spp. 3
In short: as §1

E. coli 1440 = system: E. coli 1440
In short: as §1

E. faecalis 3051 = system: E. faecalis 3051
In short: as §1

E. faecium 27 = system: E. faecium 27
In short: as §1

E. faecium 29 = system: E. faecium 29
In short: as §1

E. faecium 30 = system: E. faecium 30
In short: as §1

E.coli ATCC 25922 = system: E.coli ATCC 25922
In short: as §1

Enterobacter spp. 16 = system: Enterobacter spp. 16
In short: as §1

Kl. pneumoniae 1953 PR = system: Kl. pneumoniae 1953 PR
In short: as §1

Klebsiella spp. 10 = system: Klebsiella spp. 10
In short: as §1

Klebsiella spp. 12 = system: Klebsiella spp. 12
In short: as §1

Ps. aeruginosa 1202 = system: Ps. aeruginosa 1202
In short: as §1

Ps. aeruginosa 1945 PR = system: Ps. aeruginosa 1945 PR
In short: as §1

[1] = system: Ps. aeruginosa ATTC 27853
In short: as §1

S. aureus 1131 MRSA = system: S. aureus 1131 MRSA
In short: as §1

S. aureus 1134 MRSA = system: S. aureus 1134 MRSA
In short: as §1

S. aureus 981 MRSA = system: S. aureus 981 MRSA
In short: as §1

S. aureus ATCC 209p = system: S. aureus ATCC 209p
In short: as §1

S. marcescens 1966 PR = system: S. marcescens 1966 PR
In short: as §1

Molecule: alkyldimethyl(phenylmethyl) ammonium chloride [Benzalconium chloride]
- MIC (A. baumannii 1425 PR; A. baumannii 1425 PR, inoculum 10^7 CFU/ml): 32 µg/mL
- MIC (Acinetobacter spp. 1; Acinetobacter spp. 1, inoculum 10^7 CFU/ml): >64 µg/mL
- MIC (Acinetobacter spp. 3; Acinetobacter spp. 3, inoculum 10^7 CFU/ml): 4 µg/mL
- MIC (E. coli 1440; E. coli 1440, inoculum 10^7 CFU/ml): 32 µg/mL
- MIC (E. faecalis 3051; E. faecalis 3051, inoculum 10^7 CFU/ml): 2 µg/mL
- MIC (E. faecium 27; E. faecium 27, inoculum 10^7 CFU/ml): 0.5 µg/mL
- MIC (E. faecium 29; E. faecium 29, inoculum 10^7 CFU/ml): <0.5 µg/mL
- MIC (E. faecium 30; E. faecium 30, inoculum 10^7 CFU/ml): <0.5 µg/mL
- MIC (E.coli ATCC 25922; E.coli ATCC 25922, inoculum 10^7 CFU/ml): 1 µg/mL
- MIC (Enterobacter spp. 16; Enterobacter spp. 16, inoculum 10^7 CFU/ml): 4 µg/mL
- MIC (Kl. pneumoniae 1953 PR; Kl. pneumoniae 1953 PR, inoculum 10^7 CFU/ml): 16 µg/mL
- MIC (Klebsiella spp. 10; Klebsiella spp. 10, inoculum 10^7 CFU/ml): 1 µg/mL
- MIC (Klebsiella spp. 12; Klebsiella spp. 12, inoculum 10^7 CFU/ml): 2 µg/mL
- MIC (Ps. aeruginosa 1202; Ps. aeruginosa 1202, inoculum 10^7 CFU/ml): >64 µg/mL
- MIC (Ps. aeruginosa 1945 PR; Ps. aeruginosa 1945 PR, inoculum 10^7 CFU/ml): >64 µg/mL
- MIC ([1]; Ps. aeruginosa ATTC 27853, inoculum 10^7 CFU/ml): >64 µg/mL
- MIC (S. aureus 1131 MRSA; S. aureus 1131 MRSA, inoculum 10^7 CFU/ml): 2 µg/mL
- MIC (S. aureus 1134 MRSA; S. aureus 1134 MRSA, inoculum 10^7 CFU/ml): 2 µg/mL
- MIC (S. aureus 981 MRSA; S. aureus 981 MRSA, inoculum 10^7 CFU/ml): 4 µg/mL
- MIC (S. aureus ATCC 209p; S. aureus ATCC 209p, inoculum 10^7 CFU/ml): 4 µg/mL
- MIC (S. marcescens 1966 PR; S. marcescens 1966 PR, inoculum 10^7 CFU/ml): 64 µg/mL

Molecule: CCCCCCCCCCCC[N+](C)(C)Cc1cnc(C[N+](C)(C)CCCCCCCCCCCC)c2c1COC(CC)O2 (stereo not drawn) [Compound I, 5,8-(Bis(methylene (N, N-dimethyl-N-dodecylammonium))-2-ethyl-4H-[1,3]dioxino [4,5-c]pyridiniumdichloride]
- MIC (A. baumannii 1425 PR; Acinetobacter baumannii, A. baumannii 1425 PR, inoculum 10^7 CFU/ml, read-out: MIC): 8 µg/mL
- MIC (Acinetobacter spp. 1; Acinetobacter spp. 1, inoculum 10^7 CFU/ml, read-out: MIC): 16 µg/mL
- MIC (Acinetobacter spp. 3; Acinetobacter spp. 3, inoculum 10^7 CFU/ml, read-out: MIC): 8 µg/mL
- MIC (E. coli 1440; Escherichia coli, E. coli 1440, inoculum 10^7 CFU/ml, read-out: MIC): 32 µg/mL
- MIC (E. faecalis 3051; Enterococcus faecalis, E. faecalis 3051, inoculum 10^7 CFU/ml, read-out: MIC): 4 µg/mL
- MIC (E. faecium 27; Enterococcus faecium, E. faecium 27, inoculum 10^7 CFU/ml, read-out: MIC): 0.03 µg/mL
- MIC (E. faecium 29; Enterococcus faecium, E. faecium 29, inoculum 10^7 CFU/ml, read-out: MIC): 0.03 µg/mL
- MIC (E. faecium 30; Enterococcus faecium, E. faecium 30, inoculum 10^7 CFU/ml, read-out: MIC): 0.03 µg/mL
- MIC (E.coli ATCC 25922; Escherichia coli, ATCC25922, E.coli ATCC 25922, inoculum 10^7 CFU/ml, read-out: MIC): 2 µg/mL
- MIC (Enterobacter spp. 16; Enterobacter spp. 16, inoculum 10^7 CFU/ml, read-out: MIC): 8 µg/mL
- MIC (Kl. pneumoniae 1953 PR; Klebsiella pneumoniae, Kl. pneumoniae 1953 PR, inoculum 10^7 CFU/ml, read-out: MIC): 2 µg/mL
- MIC (Klebsiella spp. 10; Klebsiella spp. 10, inoculum 10^7 CFU/ml, read-out: MIC): 8 µg/mL
- MIC (Klebsiella spp. 12; Klebsiella spp. 12, inoculum 10^7 CFU/ml, read-out: MIC): 16 µg/mL
- MIC (Ps. aeruginosa 1202; Pseudomonas aeruginosa, Ps. aeruginosa 1202, inoculum 10^7 CFU/ml, read-out: MIC): 32 µg/mL
- MIC (Ps. aeruginosa 1945 PR; Pseudomonas aeruginosa, Ps. aeruginosa 1945 PR, inoculum 10^7 CFU/ml, read-out: MIC): 64 µg/mL
- MIC ([1]; Pseudomonas aeruginosa, ATTC27853, Ps. aeruginosa ATTC 27853, inoculum 10^7 CFU/ml, read-out: MIC): 4 µg/mL
- MIC (S. aureus 1131 MRSA; Staphylococcus aureus, S. aureus 1131 MRSA, inoculum 10^7 CFU/ml, read-out: MIC): 2 µg/mL
- MIC (S. aureus 1134 MRSA; Staphylococcus aureus, S. aureus 1134 MRSA, inoculum 10^7 CFU/ml, read-out: MIC): 2 µg/mL
- MIC (S. aureus 981 MRSA; Staphylococcus aureus, S. aureus 981 MRSA, inoculum 10^7 CFU/ml, read-out: MIC): 4 µg/mL
- MIC (S. aureus ATCC 209p; Staphylococcus aureus, ATCC209P, S. aureus ATCC 209p, inoculum 10^7 CFU/ml, read-out: MIC): 2 µg/mL
- MIC (S. marcescens 1966 PR; Serratia marcescens, S. marcescens 1966 PR, inoculum 10^7 CFU/ml, read-out: MIC): 32 µg/mL

Molecule: CCCCCCCCCCCCCC(=O)NCCC[N+](C)(C)Cc1ccccc1.O.[Cl-] [Miramistin, benzyldimethyl [3-(myristoylamino)propyl]-ammonium chloride monohydrate]
- MIC (A. baumannii 1425 PR; Acinetobacter baumannii, 1425PR): 64 µg/mL
- MIC (Acinetobacter spp. 1; Acinetobacter, SPP.1): 64 µg/mL
- MIC (Acinetobacter spp. 3; Acinetobacter, SPP.3): 64 µg/mL
- MIC (E. coli 1440; Escherichia coli, 1440): 64 µg/mL
- MIC (E. faecalis 3051; Enterococcus faecalis, 3051): 2 µg/mL
- MIC (E. faecium 27; Enterococcus faecium, 27): 32 µg/mL
- MIC (E. faecium 29; Enterococcus faecium, 29): 8 µg/mL
- MIC (E. faecium 30; Enterococcus faecium, 30): < 0.5 µg/mL
- MIC (E.coli ATCC 25922; Escherichia coli, ATCC25922): 4 µg/mL
- MIC (Enterobacter spp. 16; Enterobacter, SPP.16): 64 µg/mL
- MIC (Kl. pneumoniae 1953 PR; Klebsiella pneumoniae, 1953PR): 64 µg/mL
- MIC (Klebsiella spp. 10; Klebsiella, SPP.10): 64 µg/mL
- MIC (Klebsiella spp. 12; Klebsiella, SPP.12): > 64 µg/mL
- MIC (Ps. aeruginosa 1202; Pseudomonas aeruginosa, 1202): > 64 µg/mL
- MIC (Ps. aeruginosa 1945 PR; Pseudomonas aeruginosa, 1945PR): > 64 µg/mL
- MIC ([1]; Pseudomonas aeruginosa, ATTC27853): > 64 µg/mL
- MIC (S. aureus 1131 MRSA; Staphylococcus aureus, MRSA): 4 µg/mL
- MIC (S. aureus 1134 MRSA; Staphylococcus aureus, MRSA): 8 µg/mL
- MIC (S. aureus 981 MRSA; Staphylococcus aureus, MRSA): 4 µg/mL
- MIC (S. aureus ATCC 209p; Staphylococcus aureus, ATCC209P): 8 µg/mL
- MIC (S. marcescens 1966 PR; Serratia marcescens, 1966PR): 64 µg/mL
